Test results: patent publication US20230174530A1, “N-(PHENYLAMINOCARBONYL) TETRAHYDRO-ISOQUINOLINES AND RELATED COMPOUNDS AS MODULATORS OF GPR65” (PATHIOS THERAPEUTICS LIMITED, priority 2020, published 2023)

target: T1, human recombinant GPR65 (Homo sapiens, UniProt Q8IYL9); experiment: Human GPR65 cAMP HTRF antagonist assay; type: cell-based; details: 1321N1-hrGPR65 cells stimulated at assay pH 7.2; suppression of cAMP rise; read-out: hGPR65 IC50
T1 construct: host or cells: 1321N1 human astrocytoma cells (1321N1-hrGPR65)
T1 sequence (Q8IYL9 whole entry): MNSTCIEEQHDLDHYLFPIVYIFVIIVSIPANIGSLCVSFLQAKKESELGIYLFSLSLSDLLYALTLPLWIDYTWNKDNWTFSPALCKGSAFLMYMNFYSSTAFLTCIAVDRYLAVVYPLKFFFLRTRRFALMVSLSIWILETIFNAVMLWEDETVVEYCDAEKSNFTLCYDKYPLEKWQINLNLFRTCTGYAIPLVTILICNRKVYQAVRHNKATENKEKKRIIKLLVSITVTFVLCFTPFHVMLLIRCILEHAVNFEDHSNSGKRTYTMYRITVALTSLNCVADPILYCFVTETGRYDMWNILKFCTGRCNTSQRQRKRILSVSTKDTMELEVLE
Experimental: Human GPR65 Cyclic Adenosine Monophosphate (cAMP) Homogeneous Time Resolved Fluorescence (HTRF) Antagonist Assay Procedure
IC50 data was obtained by the following procedure:
1321N1 human astrocytoma cells stably expressing human recombinant GPR65 (1321N1-hrGPR65 cells, EuroscreenFast) were cultured according to the vendor's instructions.
Compounds were tested for their ability to antagonise GPR65, through measuring the concentration of cytoplasmic cAMP following treatment of the cells at a pH of 7.2 to activate GPR65 signalling and addition of the compound to be tested. The extent to which the expected rise in cAMP concentration upon GPR65 activation was suppressed by the added compound is indicative of its potency. The assay was carried out according to EuroscreenFast assay methodology as follows.
On the day of the assay, test compounds were added to 384-well, low volume, white microtiter plates by acoustic dispensing. KRH buffer (5 mM KCl, 1.25 mM MgSO4, 124 mM NaCl, 25 mM HEPES, 13.3 mM Glucose, 1.25 mM KH2PO4 and 1.45 mM CaCl2) was adjusted to pH 6.5, pH 7.6 and pH 8.4 by adding NaOH. 1321N1-hGPR65 cells were rapidly thawed and diluted in KRH, pH 7.6 prior to centrifugation at 300×g for 5 min and resuspension in assay buffer (KRH, pH 7.6, supplemented with 1 mM 3-isobutyl-1-methylxanthine (IBMX) and 200 μM ethylenediaminetetraacetic acid (EDTA)). Cells were added to assay plates at a density of 2,000 cells per well in a volume of 5 μl. Assay plates were briefly centrifuged at 100×g and then incubated at room temperature for 30 min. Cells were stimulated by the addition of 5 μL KRH, pH 6.5, to achieve an assay pH of 7.2, while control wells received 5 μl KRH, pH 8.4 to achieve an assay pH of 7.9. Assay plates were briefly centrifuged at 100×g and then incubated at room temperature for 30 min.
Accumulation of cAMP was detected by cAMP HTRF kit (Cisbio). d2-labeled cAMP and cryptate-labeled anti-cAMP antibody in Lysis and Detection Buffer (Cisbio) were added to assay plates, and the plates were incubated at room temperature for 1 h. HTRF measurements were performed using a Pherastar FSX instrument. Acceptor and donor emission signals were measured at 665 nm and 620 nm, respectively, and HTRF ratios were calculated as signal665 nm/signal620 nm×10^4. Data were normalised to high and low control values and fitted with 4-parameter logistic regression to determine hGPR65 IC50 values for the test compounds, which are shown in Table 1.

SMILES	IC50 [µM]
O=C(Nc1ccc(C(F)(F)F)c(Cl)c1)N1CCc2ccc(F)cc2C1 [Compound 33, N-(3-Chloro-4-(trifluoromethyl)phenyl)-7-fluoro-3,4-dihydroisoquinoline-2(1H)-carboxamide]	< 0.5
Cc1ccc2c(c1)CN(C(=O)Nc1ccc(Cl)c(Cl)c1)CC2 [Compound 34, N-(3,4-Dichlorophenyl)-7-methyl-3,4-dihydroisoquinoline-2(1H)-carboxamide]	> 5
Cc1ccc2c(c1)CN(C(=O)Nc1ccc(C(F)(F)F)c(Cl)c1)CC2 [Compound 35, N-(3-Chloro-4-(trifluoromethyl)phenyl)-7-methyl-3,4-dihydroisoquinoline-2(1H)-carboxamide]	0.5 to 5
O=C(Nc1ccc(C(F)(F)F)c(Cl)c1)N1CCc2c(F)cccc2C1 [Compound 36, N-(3-Chloro-4-(trifluoromethyl)phenyl)-5-fluoro-3,4-dihydroisoquinoline-2(1H)-carboxamide]	< 0.5
N#Cc1ccc2c(c1)CCN(C(=O)Nc1ccc(Cl)c(Cl)c1)C2 [Compound 37, 6-Cyano-N-(3,4-dichlorophenyl)-3,4-dihydroisoquinoline-2(1H)-carboxamide]	< 0.5
N#Cc1ccc2c(c1)CCN(C(=O)Nc1ccc(Cl)c(C(F)(F)F)c1)C2 [Compound 38, N-(4-Chloro-3-(trifluoromethyl)phenyl)-6-cyano-3,4-dihydroisoquinoline-2(1H)-carboxamide]	0.5 to 5
N#Cc1ccc2c(c1)CCN(C(=O)Nc1ccc(C(F)(F)F)c(Cl)c1)C2 [Compound 39, N-(3-Chloro-4-(trifluoromethyl)phenyl)-6-cyano-3,4-dihydroisoquinoline-2(1H)-carboxamide]	< 0.5
O=C(Nc1ccc(Cl)c(Cl)c1)N1CCc2cc(F)ccc2C1 [Compound 42, N-(3,4-Dichlorophenyl)-6-fluoro-3,4-dihydroisoquinoline-2(1H)-carboxamide]	< 0.5
O=C(Nc1ccc(Cl)c(C(F)(F)F)c1)N1CCc2cc(F)ccc2C1 [Compound 43, N-(4-Chloro-3-(trifluoromethyl)phenyl)-6-fluoro-3,4-dihydroisoquinoline-2(1H)-carboxamide]	< 0.5
O=C(Nc1ccc(C(F)(F)F)c(Cl)c1)N1CCc2cc(F)ccc2C1 [Compound 44, N-(3-Chloro-4-(trifluoromethyl)phenyl)-6-fluoro-3,4-dihydroisoquinoline-2(1H)-carboxamide]	< 0.5
O=C(Nc1ccc(Cl)c(Cl)c1)N1CCc2cccc(F)c2C1 [Compound 45, N-(3,4-Dichlorophenyl)-8-fluoro-3,4-dihydroisoquinoline-2(1H)-carboxamide]	0.5 to 5
O=C(Nc1ccc(Cl)c(C(F)(F)F)c1)N1CCc2cccc(F)c2C1 [Compound 46, N-(4-Chloro-3-(trifluoromethyl)phenyl)-8-fluoro-3,4-dihydroisoquinoline-2(1H)-carboxamide]	> 5
O=C(Nc1ccc(C(F)(F)F)c(Cl)c1)N1CCc2cccc(F)c2C1 [Compound 47, N-(3-Chloro-4-(trifluoromethyl)phenyl)-8-fluoro-3,4-dihydroisoquinoline-2(1H)-carboxamide]	0.5 to 5
N#Cc1ccc2c(c1)CN(C(=O)Nc1ccc(Cl)c(Cl)c1)CC2 [Compound 49, 7-Cyano-N-(3,4-dichlorophenyl)-3,4-dihydroisoquinoline-2(1H)-carboxamide]	0.5 to 5
N#Cc1ccc2c(c1)CN(C(=O)Nc1ccc(Cl)c(C(F)(F)F)c1)CC2 [Compound 50, N-(4-Chloro-3-(trifluoromethyl)phenyl)-7-cyano-3,4-dihydroisoquinoline-2(1H)-carboxamide]	0.5 to 5
N#Cc1ccc2c(c1)CN(C(=O)Nc1ccc(C(F)(F)F)c(Cl)c1)CC2 [Compound 51, N-(3-Chloro-4-(trifluoromethyl)phenyl)-7-cyano-3,4-dihydroisoquinoline-2(1H)-carboxamide]	0.5 to 5
O=C(Nc1ccc(Cl)c(Cl)c1)N1CCc2cc(Cl)ccc2C1 [Compound 52, 6-Chloro-N-(3,4-dichlorophenyl)-3,4-dihydroisoquinoline-2(1H)-carboxamide]	< 0.5

SMILES	IC50 [µM]
O=C(Nc1ccc(Cl)c(C(F)(F)F)c1)N1CCc2cc(Cl)ccc2C1 [Compound 53, 6-Chloro-N-(4-chloro-3-(trifluoromethyl)phenyl)-3,4-dihydroisoquinoline-2(1H)-carboxamide]	< 0.5
O=C(Nc1ccc(C(F)(F)F)c(Cl)c1)N1CCc2cc(Cl)ccc2C1 [Compound 54, 6-Chloro-N-(3-chloro-4-(trifluoromethyl)phenyl)-3,4-dihydroisoquinoline-2(1H)-carboxamide]	< 0.5
O=C(Nc1ccc(Cl)c(Cl)c1)N1CCc2c(Cl)cccc2C1 [Compound 55, 5-Chloro-N-(3,4-dichlorophenyl)-3,4-dihydroisoquinoline-2(1H)-carboxamide]	0.5 to 5
O=C(Nc1ccc(Cl)c(C(F)(F)F)c1)N1CCc2c(Cl)cccc2C1 [Compound 56, 5-Chloro-N-(4-chloro-3-(trifluoromethyl)phenyl)-3,4-dihydroisoquinoline-2(1H)-carboxamide]	> 5
O=C(Nc1ccc(C(F)(F)F)c(Cl)c1)N1CCc2c(Cl)cccc2C1 [Compound 57, 5-Chloro-N-(3-chloro-4-(trifluoromethyl)phenyl)-3,4-dihydroisoquinoline-2(1H)-carboxamide]	0.5 to 5
Cc1cccc2c1CCN(C(=O)Nc1ccc(Cl)c(Cl)c1)C2 [Compound 58, N-(3,4-Dichlorophenyl)-5-methyl-3,4-dihydroisoquinoline-2(1H)-carboxamide]	0.5 to 5
Cc1cccc2c1CCN(C(=O)Nc1ccc(Cl)c(C(F)(F)F)c1)C2 [Compound 59, N-(4-Chloro-3-(trifluoromethyl)phenyl)-5-methyl-3,4-dihydroisoquinoline-2(1H)-carboxamide]	0.5 to 5
Cc1cccc2c1CCN(C(=O)Nc1ccc(C(F)(F)F)c(Cl)c1)C2 [Compound 60, N-(3-Chloro-4-(trifluoromethyl)phenyl)-5-methyl-3,4-dihydroisoquinoline-2(1H)-carboxamide]	0.5 to 5
COc1ccc2c(c1)CN(C(=O)Nc1ccc(Cl)c(Cl)c1)CC2 [Compound 61, N-(3,4-Dichlorophenyl)-7-methoxy-3,4-dihydroisoquinoline-2(1H)-carboxamide]	0.5 to 5
COc1ccc2c(c1)CN(C(=O)Nc1ccc(Cl)c(C(F)(F)F)c1)CC2 [Compound 62, N-(4-Chloro-3-(trifluoromethyl)phenyl)-7-methoxy-3,4-dihydroisoquinoline-2(1H)-carboxamide]	> 5
COc1ccc2c(c1)CN(C(=O)Nc1ccc(C(F)(F)F)c(Cl)c1)CC2 [Compound 63, N-(3-Chloro-4-(trifluoromethyl)phenyl)-7-methoxy-3,4-dihydroisoquinoline-2(1H)-carboxamide]	0.5 to 5
COc1cccc2c1CN(C(=O)Nc1ccc(Cl)c(Cl)c1)CC2 [Compound 64, N-(3,4-Dichlorophenyl)-8-methoxy-3,4-dihydroisoquinoline-2(1H)-carboxamide]	0.5 to 5
COc1ccc2c(c1)CCN(C(=O)Nc1ccc(Cl)c(Cl)c1)C2 [Compound 65, N-(3,4-Dichlorophenyl)-6-methoxy-3,4-dihydroisoquinoline-2(1H)-carboxamide]	> 5
COc1ccc2c(c1)CCN(C(=O)Nc1ccc(Cl)c(C(F)(F)F)c1)C2 [Compound 66, N-(4-Chloro-3-(trifluoromethyl)phenyl)-6-methoxy-3,4-dihydroisoquinoline-2(1H)-carboxamide]	0.5 to 5
COc1ccc2c(c1)CCN(C(=O)Nc1ccc(C(F)(F)F)c(Cl)c1)C2 [Compound 67, N-(3-Chloro-4-(trifluoromethyl)phenyl)-6-methoxy-3,4-dihydroisoquinoline-2(1H)-carboxamide]	0.5 to 5
O=C(Nc1ccc(C(F)(F)F)c(Cl)c1)N1CCc2c(cccc2C(F)(F)F)C1 [Compound 70, N-(3-Chloro-4-(trifluoromethyl)phenyl)-5-(trifluoromethyl)-3,4-dihydroisoquinoline-2(1H)-carboxamide]	> 5
O=C(Nc1ccc(C(F)(F)F)c(Cl)c1)N1CCc2ccc(C(F)(F)F)cc2C1 [Compound 71, N-(3-Chloro-4-(trifluoromethyl)phenyl)-7-(trifluoromethyl)-3,4-dihydroisoquinoline-2(1H)-carboxamide]	0.5 to 5
